Data as given in ChEMBL document CHEMBL1128293, “4,4-Disubstituted piperidines: a new class of NK1 antagonist” (J Med Chem, 1995).

What follows are compounds tested against Substance-P receptor (Homo sapiens, UniProt P25103) (assay: Antagonistic activity against human Tachykinin receptor 1).
Format: functional

Chain of Substance-P receptor (P25103 whole entry): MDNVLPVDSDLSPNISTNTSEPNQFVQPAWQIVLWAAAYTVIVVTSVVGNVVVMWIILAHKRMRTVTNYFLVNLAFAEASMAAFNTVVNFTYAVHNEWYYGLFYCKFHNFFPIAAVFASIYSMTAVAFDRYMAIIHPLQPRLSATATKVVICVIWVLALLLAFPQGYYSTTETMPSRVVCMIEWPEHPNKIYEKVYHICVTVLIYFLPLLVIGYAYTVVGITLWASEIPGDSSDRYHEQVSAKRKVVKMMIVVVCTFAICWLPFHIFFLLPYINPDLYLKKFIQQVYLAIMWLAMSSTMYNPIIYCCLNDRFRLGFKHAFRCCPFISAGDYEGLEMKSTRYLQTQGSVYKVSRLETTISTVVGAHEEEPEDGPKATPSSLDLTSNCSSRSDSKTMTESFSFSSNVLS

IC50 | Structure (SMILES)
4.6 nM | Clc1cc(Cl)cc(COCC2(c3ccccc3)CCNCC2)c1
9 nM | Cc1cc(C)cc(COCC2(c3ccccc3)CCNCC2)c1
57 nM | FC(F)(F)c1cccc(COCC2(c3ccccc3)CCNCC2)c1
